#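 Assay format: 96-well plates, 48-hour exposure. The concentration for full growth arrest is given as TGI.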
# Columns and labels:
# Assay in all cases: NCI tumour cell line growth inhibition, 48 h
# K-562 leukemia = tested on: K-562 leukemia
# HS 578T breast = tested on: HS 578T breast
# HCC-2998 colon = tested on: HCC-2998 colon
# EKVX NSCLC = tested on: EKVX NSCLC
# HCT-15 colon = tested on: HCT-15 colon
# 786-0 renal = tested on: 786-0 renal
# RXF 393 renal = tested on: RXF 393 renal
# SF-539 CNS = tested on: SF-539 CNS
# BT-549 breast = tested on: BT-549 breast
# MDA-N = tested on: MDA-N
# PC-3 prostate = tested on: PC-3 prostate
# OVCAR-5 ovarian = tested on: OVCAR-5 ovarian
# MCF7 breast = tested on: MCF7 breast
# SNB-19 CNS = tested on: SNB-19 CNS
# NCI/ADR-RES ovarian = tested on: NCI/ADR-RES ovarian
# TK-10 renal = tested on: TK-10 renal
# HOP-62 NSCLC = tested on: HOP-62 NSCLC
# OVCAR-8 ovarian = tested on: OVCAR-8 ovarian
# ACHN renal = tested on: ACHN renal
# SF-268 CNS = tested on: SF-268 CNS
# HOP-92 NSCLC = tested on: HOP-92 NSCLC
# SW-620 colon = tested on: SW-620 colon
# SK-MEL-2 melanoma = tested on: SK-MEL-2 melanoma
# A549 NSCLC = tested on: A549 NSCLC
# U251 CNS = tested on: U251 CNS
# CCRF-CEM leukemia = tested on: CCRF-CEM leukemia
# SK-MEL-5 melanoma = tested on: SK-MEL-5 melanoma
# MDA-MB-435 = tested on: MDA-MB-435
# SK-MEL-28 melanoma = tested on: SK-MEL-28 melanoma
# OVCAR-3 ovarian = tested on: OVCAR-3 ovarian
# LOX IMVI melanoma = tested on: LOX IMVI melanoma
# MALME-3M melanoma = tested on: MALME-3M melanoma
# CAKI-1 renal = tested on: CAKI-1 renal
# HT29 colon = tested on: HT29 colon
# SF-295 CNS = tested on: SF-295 CNS
# COLO 205 colon = tested on: COLO 205 colon
# A498 renal = tested on: A498 renal
# NCI-H522 lung = tested on: NCI-H522 lung
# IGROV1 ovarian = tested on: IGROV1 ovarian
# SNB-75 CNS = tested on: SNB-75 CNS
# SN12C renal = tested on: SN12C renal
# T-47D breast = tested on: T-47D breast
# RPMI-8226 leukemia = tested on: RPMI-8226 leukemia
# HCT-116 colon = tested on: HCT-116 colon
# HL-60(TB) leukemia = tested on: HL-60(TB) leukemia
# M14 melanoma = tested on: M14 melanoma
# DU-145 prostate = tested on: DU-145 prostate
# KM12 colon = tested on: KM12 colon
# MDA-MB-231 breast = tested on: MDA-MB-231 breast
# NCI-H23 lung = tested on: NCI-H23 lung
# NCI-H226 lung = tested on: NCI-H226 lung
# OVCAR-4 ovarian = tested on: OVCAR-4 ovarian
# UO-31 renal = tested on: UO-31 renal
# SK-OV-3 ovarian = tested on: SK-OV-3 ovarian
# UACC-257 melanoma = tested on: UACC-257 melanoma
# NCI-H460 lung = tested on: NCI-H460 lung
# UACC-62 melanoma = tested on: UACC-62 melanoma
# MOLT-4 leukemia = tested on: MOLT-4 leukemia
# SR leukemia = tested on: SR leukemia
compound,measurement,setting,value
S=C(S)N1CCN(c2ccc(Cl)c(Cl)c2)CC1,TGI,K-562 leukemia,55.8 µM
same,TGI,HS 578T breast,97.2 µM
same,TGI,HCC-2998 colon,36.6 µM
same,TGI,EKVX NSCLC,> 100 µM
same,TGI,HCT-15 colon,> 100 µM
same,TGI,786-0 renal,> 100 µM
same,TGI,RXF 393 renal,> 100 µM
same,TGI,SF-539 CNS,59.4 µM
same,TGI,BT-549 breast,> 100 µM
same,TGI,MDA-N,35 µM
same,TGI,PC-3 prostate,46.9 µM
same,TGI,OVCAR-5 ovarian,> 100 µM
same,TGI,MCF7 breast,70.9 µM
same,TGI,SNB-19 CNS,> 100 µM
same,TGI,NCI/ADR-RES ovarian,> 100 µM
same,TGI,TK-10 renal,> 100 µM
same,TGI,HOP-62 NSCLC,> 100 µM
same,TGI,OVCAR-8 ovarian,> 100 µM
same,TGI,ACHN renal,> 100 µM
same,TGI,SF-268 CNS,> 100 µM
same,TGI,HOP-92 NSCLC,75.3 µM
same,TGI,SW-620 colon,52.9 µM
same,TGI,SK-MEL-2 melanoma,34.6 µM
same,TGI,A549 NSCLC,> 100 µM
same,TGI,U251 CNS,90.7 µM
same,TGI,CCRF-CEM leukemia,> 100 µM
same,TGI,SK-MEL-5 melanoma,30.5 µM
same,TGI,MDA-MB-435,37.4 µM
same,TGI,SK-MEL-28 melanoma,62.7 µM
same,TGI,OVCAR-3 ovarian,50 µM
same,TGI,LOX IMVI melanoma,31.6 µM
same,TGI,MALME-3M melanoma,44.2 µM
same,TGI,CAKI-1 renal,59.8 µM
same,TGI,HT29 colon,49.3 µM
same,TGI,SF-295 CNS,> 100 µM
same,TGI,COLO 205 colon,33.6 µM
same,TGI,A498 renal,44.2 µM
same,TGI,NCI-H522 lung,50.1 µM
same,TGI,IGROV1 ovarian,84.6 µM
same,TGI,SNB-75 CNS,> 100 µM
same,TGI,SN12C renal,> 100 µM
same,TGI,T-47D breast,42.6 µM
same,TGI,RPMI-8226 leukemia,45.8 µM
same,TGI,HCT-116 colon,29.5 µM
same,TGI,HL-60(TB) leukemia,44.3 µM
same,TGI,M14 melanoma,40.7 µM
same,TGI,DU-145 prostate,57 µM
same,TGI,KM12 colon,34.5 µM
same,TGI,MDA-MB-231 breast,40.7 µM
COc1ccc(/C(C)=N/OC(=O)c2c(-c3ccccc3Cl)noc2C)cc1CN1CCOCC1,TGI,K-562 leukemia,> 100 µM
same,TGI,HS 578T breast,> 100 µM
same,TGI,HCC-2998 colon,93.8 µM
same,TGI,HCT-15 colon,> 100 µM
same,TGI,786-0 renal,59.2 µM
same,TGI,RXF 393 renal,77.8 µM
same,TGI,SF-539 CNS,56.7 µM
same,TGI,BT-549 breast,54.9 µM
same,TGI,MDA-N,39.9 µM
same,TGI,PC-3 prostate,98.1 µM
same,TGI,OVCAR-5 ovarian,45.9 µM
same,TGI,MCF7 breast,46.3 µM
same,TGI,NCI-H23 lung,> 100 µM
same,TGI,SNB-19 CNS,46.2 µM
same,TGI,NCI/ADR-RES ovarian,> 100 µM
same,TGI,TK-10 renal,> 100 µM
same,TGI,HOP-62 NSCLC,62.1 µM
same,TGI,NCI-H226 lung,> 100 µM
same,TGI,OVCAR-4 ovarian,> 100 µM
same,TGI,OVCAR-8 ovarian,> 100 µM
same,TGI,ACHN renal,32.8 µM
same,TGI,SF-268 CNS,> 100 µM
same,TGI,HOP-92 NSCLC,91.8 µM
same,TGI,SW-620 colon,> 100 µM
same,TGI,SK-MEL-2 melanoma,34.2 µM
same,TGI,A549 NSCLC,50.9 µM
same,TGI,U251 CNS,97.7 µM
same,TGI,CCRF-CEM leukemia,> 100 µM
same,TGI,SK-MEL-5 melanoma,31.8 µM
same,TGI,MDA-MB-435,57.3 µM
same,TGI,UO-31 renal,22.3 µM
same,TGI,SK-OV-3 ovarian,> 100 µM
same,TGI,SK-MEL-28 melanoma,54.4 µM
same,TGI,OVCAR-3 ovarian,68.4 µM
same,TGI,LOX IMVI melanoma,28.1 µM
same,TGI,MALME-3M melanoma,43.7 µM
same,TGI,UACC-257 melanoma,46.6 µM
same,TGI,NCI-H460 lung,> 100 µM
same,TGI,CAKI-1 renal,> 100 µM
same,TGI,HT29 colon,36.9 µM
same,TGI,SF-295 CNS,32.8 µM
same,TGI,COLO 205 colon,31.3 µM
same,TGI,UACC-62 melanoma,30 µM
same,TGI,NCI-H522 lung,48.3 µM
same,TGI,MOLT-4 leukemia,> 100 µM
same,TGI,IGROV1 ovarian,65.6 µM
same,TGI,SR leukemia,> 100 µM
same,TGI,SNB-75 CNS,94 µM
same,TGI,SN12C renal,51.3 µM
same,TGI,T-47D breast,71 µM
same,TGI,RPMI-8226 leukemia,93.6 µM
same,TGI,HCT-116 colon,36.5 µM
same,TGI,HL-60(TB) leukemia,56.1 µM
same,TGI,M14 melanoma,28 µM
same,TGI,DU-145 prostate,> 100 µM
same,TGI,KM12 colon,70.5 µM
same,TGI,MDA-MB-231 breast,66.5 µM

# Reference: PubChem BioAssay (NCI)
